Results on one compound are retold here after US6773708B1, “Use of xanthophylls, astaxanthin e.g., for treatment of autoimmune diseases, chronic viral and intracellular bacterial infections” (AstaReal AB, priority 1999, dated 2004).

The test deals with Lichen Ruber Planus. Briefly: Case study: patient with Lichen ruber planus. In kind it is in vivo, human. As to conditions: Patient 4; several years, orally and by injection to local inflammation areas. As to the method: During the last five years reports have been received from patients taking the commercial dietary supplement capsules of the algal meal of Haematococcus pluvialis, Astaxin®, containing 4 mg astaxanthin. The daily doses recommended as an antioxidant is one capsule per day.
Patient 4. […] The symptoms of the disease were inter alia open wounds which had not healed […] had been treated with anti-inflammatory agents, such as cortisone, for several years, orally and also by injection directly to the local inflammation areas. […] They started to take 4 capsules of Astaxin per day, and after some weeks visible alleviation of the symptoms started to show up. […] During this period, the patient […] phased out the cortisone treatment. The dose of Astaxin was lowered to 2 capsules per day when they were asymtomatic. However, the symptoms returned in connection with a common cold.

Regarding `C[C@]12CCC(=O)C=C1CC[C@@H]1[C@@H]2C(=O)C[C@@]2(C)[C@H]1CC[C@]2(O)C(=O)CO` [cortisone], the “result of previous anti-inflammatory treatment” value is reported as “has not led to any result”.
